Results: patent publication US20240309065A1, “SHORT APOC-II MIMETIC PEPTIDES AND METHODS OF USE” (The United States of America, as represented by the …, priority 2021, published 2024)
Where a SMILES comes first, the peptide text is derived from it. Bridges are numbered along the chain shown (N, C = ends). Where no end group is shown, it is not given here. [ ]: non-standard residue; d: D form. The star is where a group is joined. R8 = C=CCCCCCC[C@@](C)(N)C(=O)O; S5 = C=CCCC[C@](C)(N)C(=O)O; dNle = CCCC[C@@H](N)C(=O)O; Nle = CCCC[C@H](N)C(=O)O; Octanoyl = CCCCCCCC(=O)*; Sar = CNCC(=O)O

What was measured:
[1] = target: T1, LPL from bovine milk (Bos taurus, UniProt P11151); assay: LPL activation assay (generation of NEFA); assay type: biochemical; conditions: 0-10 μM peptide, 7.45 nM LPL, apoC-II deficient plasma, 37° C. for 1 hour, NEFA measured
T1 construct: 7.45 nM of LPL from bovine milk (Sigma-Aldrich); purchased Sigma-Aldrich; host or cells: bovine milk
T1 sequence (P11151 29-478): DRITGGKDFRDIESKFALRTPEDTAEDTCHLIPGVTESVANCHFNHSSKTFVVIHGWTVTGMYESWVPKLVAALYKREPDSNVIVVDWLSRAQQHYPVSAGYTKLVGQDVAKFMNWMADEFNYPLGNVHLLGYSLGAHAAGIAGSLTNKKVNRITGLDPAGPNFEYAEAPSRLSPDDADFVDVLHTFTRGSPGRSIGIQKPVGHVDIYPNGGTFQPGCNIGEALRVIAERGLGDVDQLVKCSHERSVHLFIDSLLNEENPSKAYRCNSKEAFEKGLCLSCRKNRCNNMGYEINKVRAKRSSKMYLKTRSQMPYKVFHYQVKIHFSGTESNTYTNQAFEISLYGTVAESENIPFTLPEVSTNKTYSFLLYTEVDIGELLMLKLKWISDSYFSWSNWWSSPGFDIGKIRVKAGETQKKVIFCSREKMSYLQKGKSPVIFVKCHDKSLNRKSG
Experimental: (§1) LPL activity was determined by measuring the generation of NEFA. In a 96-well plate, 0-10 μM of an apoC-II mimetic peptide, 7.45 nM of LPL from bovine milk (Sigma-Aldrich), apoC-II deficient ethylenediaminetetraacetic acid (EDTA)-plasma (diluted with PBS to a final TG concentration of 3 mg/dL), 10 IU/ml heparin, 1% bovine serum albumin (BSA) (ICN Biomedicals), and PBS (Life Technologies) were combined in a final reaction volume of 50 μL, pre-incubated on ice for 30 minutes, and incubated at 37° C. for 1 hour. NEFA were measured with a coupled enzyme reaction (FUJIFILM Wako Diagnostics), in a SpectraMax Plus 384 Microplate Reader.

[2] = DMPC vesicle solubilization assay; conditions: 0.5 mM peptides, DMPC vesicles 0.5 mg/mL in PBS pH 7.4, absorbance at 660 nm for 1 hour at 24° C.
Experimental: Tested peptides were able to solubilize DPMC vesicles (FIG. 15). […] PBS as a negative control or 1% Triton as a positive control or 0.5 mM peptides were added to homogenous DMPC (Avanti 850345C) vesicles (0.5 mg/mL) in PBS, pH 7.4. In vitro turbidity change was monitored by following the absorbance at 660 nm for 1 hour at 24° C. Absorbance over time was plotted and the areas under the curve (AOC) were calculated.

[3] = target: T2, Pepsin A (Sus scrofa, UniProt P00791); assay: LPL activation ability following pepsin treatment; assay type: in vitro ADME; conditions: 1 mg/ml Pepsin A, pH 1.92, 1 hour at 37° C.; final concentration 10 µM of peptides
T2 construct: purchased Sigma Aldrich P6887-1G
Experimental: as §1
Peptide resistance to proteolysis was also tested. Peptides at 0.1 mM concentration were incubated at 37° C. in 20 mM ammonium bicarbonate buffer at pH 8.2 with 10 μg/ml trypsin or […] Proteinase K. The amount of intact peptide was monitored over 24-hour time period by MALDI-TOF using internal standards (Bombesin, ACTH (1-17), ACTH (18-39), and Insulin) to quantify the relative amount of peptide in each sample. As shown in FIGS. 16A-16D, the tested peptides had varying degrees of resistance to trypsin and proteinase K. In addition, peptides were tested for LPL activation ability following pepsin treatment. Peptides (1 mM stock) were prepared in 5 mM TRIS, pH 8.2. […] In vitro generated NEFA were measured by the colorimetric assay.

[4] = test system: apoC-II knockout mice; assay: Peptide activity in vivo in apoC-II knockout mice; conditions: single intraperitoneal injection 5 μmole/kg, blood at 1, 3, 6 and 24 hours; for triglycerides: compared to control
Experimental: A study was performed comparing the effect of D6-PV (SEQ ID NO: 15) and SPH2S (SEQ ID NO: 5) peptides in apoC-II knockout mice. Mice were given a single intraperitoneal injection of the peptide (5 μmole/kg) and blood was collected at 1 hour, 3 hours, 6 hours and 24 hours after injection. Triglycerides, total cholesterol, and non-esterified fatty acids (NEFA) were measured.

T2 sequence (P00791 60-385): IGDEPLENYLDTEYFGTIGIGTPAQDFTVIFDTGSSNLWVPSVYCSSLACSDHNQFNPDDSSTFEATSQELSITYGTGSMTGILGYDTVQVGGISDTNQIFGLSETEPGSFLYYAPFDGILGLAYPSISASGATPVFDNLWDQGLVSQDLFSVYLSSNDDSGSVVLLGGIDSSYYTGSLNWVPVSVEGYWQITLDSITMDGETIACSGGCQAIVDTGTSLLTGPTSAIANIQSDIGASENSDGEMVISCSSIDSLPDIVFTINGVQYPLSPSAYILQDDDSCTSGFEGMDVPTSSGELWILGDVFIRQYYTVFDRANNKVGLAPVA

efficacy for activation of LPL [1]	Molecule	other results
did not affect peptide efficacy	EK(R8)RDLYSK(S5)TAAFSTYTFIFTDQVLSVLKGEE (EK[R8]RDLYSK[S5]TAAFSTYTFIFTDQVLSVLKGEE; staple 3-10) [SEQ ID NO: 26]	–
decreased LPL activation abilities	a(nle)(R8)TYTGIF(S5)DQVLSVLK(Sarcosine)ee ([dA][dNle][R8]TYTGIF[S5]DQVLSVLK[Sar][dE][dE]; staple 3-10) [SEQ ID NO: 35]	–
–	AMSTYTGIFTDQVLSVLKGEE [SEQ ID NO: 14, truncated ApoC-II peptide]	solubilization of DMPC vesicles [2]: did not
did not affect LPL activation	CCCC[C@H](NC(=O)[C@H](C)NC(C)=O)C(=O)N[C@]1(C)CCCCCCC=CCCC[C@@](C)(C(=O)N[C@@H](CC(=O)O)C(=O)N[C@@H](CCC(N)=O)C(=O)N[C@H](C(=O)N[C@@H](CC(C)C)C(=O)N[C@@H](CO)C(=O)N[C@H](C(=O)N[C@@H](CC(C)C)C(=O)N[C@@H](CCCCN)C(=O)N(C)CC(=O)N[C@H](CCC(=O)O)C(=O)N[C@H](CCC(=O)O)C(=O)O)C(C)C)C(C)C)NC(=O)[C@H](Cc2ccccc2)NC(=O)[C@H]([C@@H](C)CC)NC(=O)CNC(=O)[C@H]([C@@H](C)O)NC(=O)[C@H](Cc2ccc(O)cc2)NC(=O)[C@H]([C@@H](C)O)NC1=O [SEQ ID NO: 34, Ac-A(Nle)(R8)TYTGIF(S5)DQVLSVLK(Sarcosine)ee] (Ac-A[Nle][R8]TYTGIF[S5]DQVLSVLK[Sar][dE][dE]-OH; staple 3-10; C-terminus assumed)	LPL activation after pepsin treatment [3]: showed resistance to pepsin treatment
did not affect LPL activation	Octanoic -A(Nle)(R8)TYTGIF(S5)DQVLSVLK(Sarcosine)ee [SEQ ID NO: 37]	–
–	DYLKEVFEKLRDLYEKFTPAVSTYTGIFTDQVLSVLKGEE [SEQ ID NO: 15, control D6-PV peptide, reference compound]	triglycerides [4]: decreased triglycerides to a similar extent
did reduce the efficacy	EK(R8)RDLYSK(S5)TAAFSTYFGIFTDQVLSVLKGEE (EK[R8]RDLYSK[S5]TAAFSTYFGIFTDQVLSVLKGEE; staple 3-10) [SEQ ID NO: 25]	–
decreased peptide activity	Octanoic-(R8)TYTGIF(S5)DQVLSVLK(Sarcosine)eeee (Octanoyl-[R8]TYTGIF[S5]DQVLSVLK[Sar][dE][dE][dE][dE]; staple 1-8) [SEQ ID NO: 39]	–
increased efficacy	STAAM(R8)TYTGIF(S5)DQVLSVLKGEE (STAAM[R8]TYTGIF[S5]DQVLSVLKGEE; staple 6-13) [SEQ ID NO: 5]	non-esterified fatty acids (NEFA) [4]: more effective than D6-PV; total cholesterol [4]: more effective than D6-PV at decreasing total cholesterol; triglycerides [4]: decreased triglycerides to a similar extent
–	CCCC[C@H](NC(=O)[C@H](C)N)C(=O)N[C@]1(C)CCCCCCC=CCCCC2(CCCC=CCCCCCC[C@@](C)(C(=O)N[C@@H](CCCCN)C(=O)N(C)CC(=O)N[C@H](CCC(=O)O)C(=O)N[C@H](CCC(=O)O)C(=O)O)NC(=O)[C@H](C(C)C)NC(=O)[C@H](CO)NC(=O)[C@H](CC(C)C)NC(=O)[C@H](C(C)C)NC(=O)[C@H](CCC(N)=O)NC(=O)[C@H](CC(=O)O)NC2=O)NC(=O)[C@H](Cc2ccccc2)NC(=O)[C@H]([C@@H](C)CC)NC(=O)CNC(=O)[C@H]([C@@H](C)O)NC(=O)[C@H](Cc2ccc(O)cc2)NC(=O)[C@H]([C@@H](C)O)NC1=O (stereo partly drawn) [SEQ ID NO: 18, A(Nle)(R8)TYTGIF(B5)DQVLSV(S8)K(Sarcosine)ee-COOH]	LPL activation after pepsin treatment [3]: showed resistance to pepsin treatment
decreased LPL activation abilities	a(nle)(R8)TYTGIF(S5)DQVLSVLk(Sarcosine)ee ([dA][dNle][R8]TYTGIF[S5]DQVLSVL[dK][Sar][dE][dE]; staple 3-10) [SEQ ID NO: 36]	–
